Reference: PMC12155096 (International Journal of Molecular Sciences, 2025)
Structures can show the parent of a compound that is named as a salt. Where two headings read alike, the source gives them in different places.

Assays:
human CYP1A2 = target: T1, human CYP1A2 (Homo sapiens, UniProt P05177)
T1 sequence (P05177 1-516): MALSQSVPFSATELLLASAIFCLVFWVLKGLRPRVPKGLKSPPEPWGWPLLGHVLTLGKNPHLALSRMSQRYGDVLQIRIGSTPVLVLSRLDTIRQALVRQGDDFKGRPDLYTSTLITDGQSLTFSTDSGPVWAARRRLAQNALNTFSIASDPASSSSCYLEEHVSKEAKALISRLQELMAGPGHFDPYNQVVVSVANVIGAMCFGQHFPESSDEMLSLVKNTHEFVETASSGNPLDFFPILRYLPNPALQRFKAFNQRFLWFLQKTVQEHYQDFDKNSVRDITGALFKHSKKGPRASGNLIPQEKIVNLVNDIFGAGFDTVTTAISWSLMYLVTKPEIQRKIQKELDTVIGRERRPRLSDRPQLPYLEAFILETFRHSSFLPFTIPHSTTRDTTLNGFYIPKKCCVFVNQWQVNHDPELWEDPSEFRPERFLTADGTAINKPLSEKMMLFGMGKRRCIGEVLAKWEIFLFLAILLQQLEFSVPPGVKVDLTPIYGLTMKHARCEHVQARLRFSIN

CYP3A4 = CYP3A4 (Homo sapiens, UniProt P08684); assay: biochemical
Chain of CYP3A4 (P08684 whole entry): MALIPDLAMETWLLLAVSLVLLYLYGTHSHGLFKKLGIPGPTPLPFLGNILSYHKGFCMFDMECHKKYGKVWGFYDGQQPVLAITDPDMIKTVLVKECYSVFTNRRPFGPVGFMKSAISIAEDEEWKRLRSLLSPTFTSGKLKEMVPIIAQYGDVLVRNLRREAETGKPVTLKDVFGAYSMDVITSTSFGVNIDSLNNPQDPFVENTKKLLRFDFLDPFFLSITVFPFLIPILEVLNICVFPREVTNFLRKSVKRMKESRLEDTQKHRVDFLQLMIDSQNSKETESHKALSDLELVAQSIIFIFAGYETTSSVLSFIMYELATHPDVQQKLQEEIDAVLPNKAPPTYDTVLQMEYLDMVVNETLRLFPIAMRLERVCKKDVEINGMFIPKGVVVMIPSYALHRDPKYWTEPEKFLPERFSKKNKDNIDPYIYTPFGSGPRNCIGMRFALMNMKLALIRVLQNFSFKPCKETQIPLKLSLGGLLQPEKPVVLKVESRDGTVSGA

human CYP2C9 = human CYP2C9 (Homo sapiens, UniProt P11712); assay: biochemical
Chain of human CYP2C9 (P11712 whole entry): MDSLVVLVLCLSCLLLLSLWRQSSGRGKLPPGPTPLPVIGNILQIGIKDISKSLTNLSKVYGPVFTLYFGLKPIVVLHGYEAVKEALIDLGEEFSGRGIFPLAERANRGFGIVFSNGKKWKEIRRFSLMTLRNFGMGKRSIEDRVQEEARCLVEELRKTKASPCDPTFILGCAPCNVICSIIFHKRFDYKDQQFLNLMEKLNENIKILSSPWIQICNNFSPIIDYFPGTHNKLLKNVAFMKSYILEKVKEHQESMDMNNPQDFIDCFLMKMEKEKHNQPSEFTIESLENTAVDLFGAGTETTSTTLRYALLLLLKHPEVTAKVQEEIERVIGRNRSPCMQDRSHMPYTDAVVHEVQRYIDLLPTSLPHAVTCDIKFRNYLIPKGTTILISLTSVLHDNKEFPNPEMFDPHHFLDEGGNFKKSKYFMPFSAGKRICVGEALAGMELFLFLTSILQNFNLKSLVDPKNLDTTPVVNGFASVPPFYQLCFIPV

human CYP2D6 = human CYP2D6 (Homo sapiens, UniProt P10635)
Chain of human CYP2D6 (P10635 whole entry): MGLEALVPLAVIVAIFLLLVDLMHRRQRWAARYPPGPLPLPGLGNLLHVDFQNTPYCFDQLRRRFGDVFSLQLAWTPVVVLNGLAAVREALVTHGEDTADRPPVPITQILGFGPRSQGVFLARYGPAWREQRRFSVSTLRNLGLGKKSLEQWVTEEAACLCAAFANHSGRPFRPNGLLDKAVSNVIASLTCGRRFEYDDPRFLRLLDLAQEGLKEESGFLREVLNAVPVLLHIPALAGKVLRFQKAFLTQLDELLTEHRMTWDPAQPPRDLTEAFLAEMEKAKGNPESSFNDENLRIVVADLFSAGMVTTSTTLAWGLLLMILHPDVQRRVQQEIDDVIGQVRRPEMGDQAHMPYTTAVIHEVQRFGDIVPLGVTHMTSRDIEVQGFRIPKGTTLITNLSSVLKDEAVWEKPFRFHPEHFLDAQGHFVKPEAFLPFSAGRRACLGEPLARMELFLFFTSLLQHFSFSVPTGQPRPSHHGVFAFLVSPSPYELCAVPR

human CYP2C19 = human CYP2C19 (Homo sapiens, UniProt P33261)
Chain of human CYP2C19 (P33261 whole entry): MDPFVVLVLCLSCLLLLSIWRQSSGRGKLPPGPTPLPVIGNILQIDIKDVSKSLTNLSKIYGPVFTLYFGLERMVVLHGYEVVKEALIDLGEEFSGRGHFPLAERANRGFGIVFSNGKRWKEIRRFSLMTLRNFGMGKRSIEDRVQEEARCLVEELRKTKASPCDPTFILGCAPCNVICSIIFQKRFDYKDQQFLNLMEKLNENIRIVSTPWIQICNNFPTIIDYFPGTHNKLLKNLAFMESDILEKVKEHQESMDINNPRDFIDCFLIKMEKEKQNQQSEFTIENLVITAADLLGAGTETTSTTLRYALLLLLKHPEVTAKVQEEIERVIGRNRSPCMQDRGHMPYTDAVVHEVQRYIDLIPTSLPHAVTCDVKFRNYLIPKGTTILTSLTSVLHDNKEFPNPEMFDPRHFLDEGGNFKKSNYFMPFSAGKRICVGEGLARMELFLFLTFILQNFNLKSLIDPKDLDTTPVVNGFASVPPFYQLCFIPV

[1] = CYP3A4 AC50 (half-maximal activity concentration)
[2] = CYP2C9 AC50 (half-maximal activity concentration)

## Cc1ccc(S(=O)(=O)NCl)cc1 [Chloramine-T trihydrate]
Human CYP1A2
  CYP1A2 AC50 (half-maximal activity concentration): Inconclusive inhibitor
CYP3A4; [1]
  AC50: 67.9 µM
Human CYP2C9; [2]
  AC50: 81.6 µM
Human CYP2D6
  CYP2D6 AC50 (half-maximal activity concentration): Inactive
Human CYP2C19
  CYP2C19 AC50 (half-maximal activity concentration): Inconclusive inhibitor

## CC(=O)OCC(=O)[C@@]12N=C(C)O[C@@H]1C[C@H]1[C@@H]3CCC4=CC(=O)C=C[C@]4(C)[C@H]3[C@@H](O)C[C@@]12C [Deflazacort]
Human CYP1A2
  CYP1A2 AC50 (half-maximal activity concentration): Inactive
CYP3A4; [1]
  AC50: 13.2 µM
Human CYP2C9; [2]
  AC50: 60.9 µM
Human CYP2D6
  CYP2D6 AC50 (half-maximal activity concentration): Inactive
Human CYP2C19
  CYP2C19 AC50 (half-maximal activity concentration): Inactive

## CCC(=O)Oc1ccc(/C(CC)=C(\CC)c2ccc(OC(=O)CC)cc2)cc1 [Diethylstilbestrol dipropionate]
Human CYP1A2
  CYP1A2 AC50 (half-maximal activity concentration): Inactive
CYP3A4; [1]
  AC50: 22.9 µM
Human CYP2C9; [2]
  AC50: 21.2 µM
Human CYP2D6
  CYP2D6 AC50 (half-maximal activity concentration): Inactive
Human CYP2C19
  CYP2C19 AC50 (half-maximal activity concentration): Inactive

## CC(=O)OCC(=O)[C@@]1(OC(C)=O)[C@@H](C)C[C@H]2[C@@H]3C[C@H](F)C4=CC(=O)C=C[C@]4(C)[C@@]3(F)[C@@H](O)C[C@@]21C [Diflorasone diacetate]
Human CYP1A2
  CYP1A2 AC50 (half-maximal activity concentration): Inactive
CYP3A4; [1]
  AC50: 4.74 µM
Human CYP2C9; [2]
  AC50: 19 µM
Human CYP2D6
  CYP2D6 AC50 (half-maximal activity concentration): Inactive
Human CYP2C19
  CYP2C19 AC50 (half-maximal activity concentration): Inconclusive activator

## CC(C)COC(=O)CCCCC(=O)OCC(C)C [Diisobutyl adipate]
Human CYP1A2
  CYP1A2 AC50 (half-maximal activity concentration): Inconclusive inhibitor
CYP3A4
  AC50: 11.7 µM
Human CYP2C9
  AC50: 38 µM
Human CYP2D6
  CYP2D6 AC50 (half-maximal activity concentration): Inactive
Human CYP2C19
  CYP2C19 AC50 (half-maximal activity concentration): Inactive

## CN(C(=O)C(Cl)Cl)c1ccc(OC(=O)c2ccco2)cc1 [Diloxanide furoate]
Human CYP1A2
  CYP1A2 AC50 (half-maximal activity concentration): Inactive
CYP3A4; [1]
  AC50: 25.3 µM
Human CYP2C9; [2]
  AC50: 15.5 µM
Human CYP2D6
  CYP2D6 AC50 (half-maximal activity concentration): Inconclusive
Human CYP2C19
  CYP2C19 AC50 (half-maximal activity concentration): Inconclusive inhibitor

## O=C(NC(=O)c1c(F)cccc1F)Nc1ccc(Oc2ccc(C(F)(F)F)cc2Cl)cc1F [Flufenoxuron]
Human CYP1A2
  CYP1A2 AC50 (half-maximal activity concentration): Inactive
CYP3A4; [1]
  AC50: 18.6 µM
Human CYP2C9; [2]
  AC50: 17.8 µM
Human CYP2D6
  CYP2D6 AC50 (half-maximal activity concentration): Inactive
Human CYP2C19
  CYP2C19 AC50 (half-maximal activity concentration): Inconclusive

## Cc1ccc(Cl)c(Nc2ccccc2C(=O)O)c1Cl [Meclofenamate sodium]
Human CYP1A2
  CYP1A2 AC50 (half-maximal activity concentration): Inactive
CYP3A4; [1]
  AC50: 38.9 µM
Human CYP2C9; [2]
  AC50: 24.2 µM
Human CYP2D6
  CYP2D6 AC50 (half-maximal activity concentration): Inconclusive inhibitor
Human CYP2C19
  CYP2C19 AC50 (half-maximal activity concentration): Inactive

## Cc1cccc(Nc2ccccc2C(=O)O)c1C [Mefenamic acid]
Human CYP1A2
  CYP1A2 AC50 (half-maximal activity concentration): Inconclusive inhibitor
CYP3A4; [1]
  AC50: 73.9 µM
Human CYP2C9; [2]
  AC50: 33 µM
Human CYP2D6
  CYP2D6 AC50 (half-maximal activity concentration): Inactive
Human CYP2C19
  CYP2C19 AC50 (half-maximal activity concentration): Inconclusive inhibitor

## C[C@]12C=CC(=O)C=C1CC[C@@H]1[C@@H]2CC[C@@]2(C)[C@H]1CC[C@]2(C)O [Methandrostenolone]
Human CYP1A2
  CYP1A2 AC50 (half-maximal activity concentration): Inactive
CYP3A4; [1]
  AC50: 2.65 µM
Human CYP2C9; [2]
  AC50: 34.7 µM
Human CYP2D6
  CYP2D6 AC50 (half-maximal activity concentration): Inactive
Human CYP2C19
  CYP2C19 AC50 (half-maximal activity concentration): Inactive

## O=C(O)C(F)(F)C(F)(F)C(F)(F)C(F)(F)C(F)(F)C(F)(F)F [Perfluoroheptanoic acid]
Human CYP1A2
  CYP1A2 AC50 (half-maximal activity concentration): Inactive
CYP3A4; [1]
  AC50: 65.8 µM
Human CYP2C9; [2]
  AC50: 6.33 µM
Human CYP2D6
  CYP2D6 AC50 (half-maximal activity concentration): Inactive
Human CYP2C19
  CYP2C19 AC50 (half-maximal activity concentration): Inactive

## O=C(O)c1ccccc1C(c1ccc(O)cc1)c1ccc(O)cc1 [Phenolphthalin]
Human CYP1A2
  CYP1A2 AC50 (half-maximal activity concentration): Inconclusive inhibitor
CYP3A4; [1]
  AC50: 30.1 µM
Human CYP2C9; [2]
  AC50: 56.6 µM
Human CYP2D6
  CYP2D6 AC50 (half-maximal activity concentration): Inactive
Human CYP2C19
  CYP2C19 AC50 (half-maximal activity concentration): Inactive

## CCCCCCCCCCOS(=O)(=O)O [Sodium decyl sulfate]
Human CYP1A2
  CYP1A2 AC50 (half-maximal activity concentration): Inactive
CYP3A4
  AC50: 85.8 µM
Human CYP2C9
  AC50: 38.5 µM
Human CYP2D6
  CYP2D6 AC50 (half-maximal activity concentration): Inconclusive inhibitor
Human CYP2C19
  CYP2C19 AC50 (half-maximal activity concentration): Inactive
